Results: patent US20080057086A1, “COLON-TARGETED ORAL FORMULATIONS OF CYTIDINE ANALOGS” (PHARMION CORPORATION, priority 2006, published 2008)
Like-named read-outs stand apart in the source and are kept apart here.

Assay: Clinical study of single oral doses of 5-azacytidine (oral formulation of Example 3): PK, bioavailability, safety
Assay type: in vivo, human
Conditions: for bioavailability: oral, SC reference dose = 135 mg, AUC = 777 ng · h/mL, read-out: F, percent bioavailability compared with historical SC azacitidine data
Description: The study was a multicenter, open-label, single treatment study. Patients were treated with escalating doses, in 20 mg increments, up to 200 mg. The study assessed the safety and tolerability of escalating doses, provided pilot information on the oral bioavailability of the study drug, and provided information on the single dose pharmacokinetics of the study drug after oral administration.
Multicenter, open-label, single-treatment, escalating-dose PK study. […] Single subject cohorts were used for each dose escalation. Subsequent subjects were to be treated at escalating doses, up to 200 mg, in 20 mg increments. Dose escalation was to continue until 1 of the following conditions was reached: • a.
If no safety concerns were identified and no Grade 3 or 4 AEs occurred in these subjects, dose escalation was to continue. […] Serial blood samples for plasma PK analyses were drawn before, and at the following time points after, dosing: 0.5, 1, 1.5, 2, 2.5, 3, 3.5, 4, 4.5, 5, 5.5, 6, 6.5, 7, 8 hours, and 12 hours (if possible). […] PK parameters calculated from plasma concentrations included (but were not limited to) Cmax, Tmax, t1/2, and AUC(0−∞).

[1] = 1 subject, 60 mg single oral dose
[2] = 1 subject, 80 mg single oral dose
[3] = all 4 subjects, 60 or 80 mg single oral dose
[4] = human, plasma, po, 60 mg, Subject 101, 60 mg single oral dose (Example 3 tablets)
[5] = human, plasma, po, 60 mg, Subject 101, 60 mg single oral dose (Example 3 tablets), read-out: Plasma concentration
[6] = human, plasma, po, 80 mg, Mean (n = 3), 80 mg single oral dose (Example 3 tablets)
[7] = human, plasma, po, 80 mg, Mean of 80 mg dose group (n=3), single oral dose (Example 3 tablets), read-out: Mean plasma concentration
[8] = human, plasma, po, 80 mg, Subject 102, 80 mg single oral dose (Example 3 tablets)
[9] = human, plasma, po, 80 mg, Subject 102, 80 mg single oral dose (Example 3 tablets), read-out: Plasma concentration
[10] = human, plasma, po, 80 mg, Subject 201, 80 mg single oral dose (Example 3 tablets)
[11] = human, plasma, po, 80 mg, Subject 201, 80 mg single oral dose (Example 3 tablets), read-out: Plasma concentration
[12] = human, plasma, po, 80 mg, Subject 202, 80 mg single oral dose (Example 3 tablets)
[13] = human, plasma, po, 80 mg, Subject 202, 80 mg single oral dose (Example 3 tablets), read-out: Plasma concentration

Nc1ncn([C@@H]2O[C@H](CO)[C@@H](O)[C@H]2O)c(=O)n1 [5-azacytidine, 4-amino-1-β-D-ribofuranosyl-1,3,5-triazin-2(1H)-one]
Plasma samples with quantifiable 5-azacytidine [1]: 2 samples
Tolerability [1]: well tolerated
Consecutive plasma samples with detectable 5-azacytidine [2]: 4 consecutive samples
Tolerability [2]: well tolerated
Mean plasma concentration (Mean of 80 mg dose group (n=3), single oral dose (Example 3 tablets), 4.0 h): BLQ
Mean plasma concentration (Mean of 80 mg dose group (n=3), single oral dose (Example 3 tablets), 4.5 h): BLQ
Mean plasma concentration (Mean of 80 mg dose group (n=3), single oral dose (Example 3 tablets), 5.0 h): BLQ
Plasma concentration (Subject 101, 60 mg single oral dose (Example 3 tablets), 0.5 h): BLQ
Plasma concentration (Subject 101, 60 mg single oral dose (Example 3 tablets), 4.5 h): BLQ
Plasma concentration (Subject 101, 60 mg single oral dose (Example 3 tablets), 5.0 h): BLQ
Plasma concentration (Subject 102, 80 mg single oral dose (Example 3 tablets), 0.5 h): BLQ
Plasma concentration (Subject 102, 80 mg single oral dose (Example 3 tablets), 3.5 h): BLQ
Plasma concentration (Subject 102, 80 mg single oral dose (Example 3 tablets), 4.0 h): BLQ
Plasma concentration (Subject 102, 80 mg single oral dose (Example 3 tablets), 4.5 h): BLQ
Plasma concentration (Subject 102, 80 mg single oral dose (Example 3 tablets), 5.0 h): BLQ
Plasma concentration (Subject 201, 80 mg single oral dose (Example 3 tablets), 0.5 h): BLQ
Plasma concentration (Subject 201, 80 mg single oral dose (Example 3 tablets), 5.0 h): BLQ
Plasma concentration (Subject 202, 80 mg single oral dose (Example 3 tablets), 4.0 h): BLQ
Plasma concentration (Subject 202, 80 mg single oral dose (Example 3 tablets), 4.5 h): BLQ
Plasma concentration (Subject 202, 80 mg single oral dose (Example 3 tablets), 5.0 h): BLQ
Grade of AEs possibly related to study drug [3]: Grade 2
Study-drug-related SAEs [3]: No study-drug-related SAEs
bioavailability (human, plasma, 60 mg, Subject 101, 60 mg single oral dose): 6.7%
bioavailability (human, plasma, 80 mg, Mean (n = 3), 80 mg single oral dose): 18%
bioavailability (human, plasma, 80 mg, Subject 102, 80 mg single oral dose): 6.3%
bioavailability (human, plasma, 80 mg, Subject 201, 80 mg single oral dose): 24%
bioavailability (human, plasma, 80 mg, Subject 202, 80 mg single oral dose): 22%
AUC(0-inf) [4]: 22.6 ng·h/mL
Cmax [4]: 15.8 ng/mL
Tmax [4]: 3 h
concentration at 0 h [5]: 0 ng/mL
concentration at 1 h [5]: 3.72 ng/mL
concentration at 1.5 h [5]: 4.56 ng/mL
concentration at 2 h [5]: 3.75 ng/mL
concentration at 3 h [5]: 15.8 ng/mL
concentration at 3.5 h (human, plasma, po, 60 mg, Subject 101, 60 mg single oral dose (Example 3 tablets), 3.5 h, read-out: Plasma concentration): 4.27 ng/mL
concentration at 4 h (human, plasma, po, 60 mg, Subject 101, 60 mg single oral dose (Example 3 tablets), 4.0 h): 1.55 ng/mL
AUC(0-inf) [6]: 81.5 ng·h/mL
Cmax [6]: 53.2 ng/mL
Tmax [6]: 1.5 h
half-life [6]: 0.361 h
concentration at 0 h [7]: 0 ng/mL
concentration at 0.5 h (human, plasma, po, 80 mg, Mean of 80 mg dose group (n=3), single oral dose (Example 3 tablets), 0.5 h, read-out: Mean plasma concentration): 1.49 ng/mL
concentration at 1 h [7]: 46.6 ng/mL
concentration at 1.5 h [7]: 53.2 ng/mL
concentration at 2 h [7]: 36.9 ng/mL
concentration at 2.5 h [7]: 17.5 ng/mL
concentration at 3 h [7]: 6.3 ng/mL
concentration at 3.5 h (human, plasma, po, 80 mg, Mean of 80 mg dose group (n=3), single oral dose (Example 3 tablets), 3.5 h, read-out: Mean plasma concentration): 2.57 ng/mL
AUC(0-inf) [8]: 28.6 ng·h/mL
Cmax [8]: 34.3 ng/mL
Tmax [8]: 1.5 h
half-life [8]: 0.336 h
concentration at 0 h [9]: 0 ng/mL
concentration at 1 h [9]: 9.25 ng/mL
concentration at 1.5 h [9]: 34.3 ng/mL
concentration at 2 h [9]: 11 ng/mL
concentration at 2.5 h [9]: 3.61 ng/mL
concentration at 3 h [9]: 1.4 ng/mL
AUC(0-inf) [10]: 111 ng·h/mL
Cmax [10]: 75.1 ng/mL
Tmax [10]: 2 h
half-life [10]: 0.416 h
concentration at 0 h [11]: 0 ng/mL
concentration at 1 h [11]: 31.5 ng/mL
concentration at 1.5 h [11]: 58.5 ng/mL
concentration at 2 h [11]: 75.1 ng/mL
concentration at 2.5 h [11]: 36.4 ng/mL
concentration at 3 h [11]: 14.1 ng/mL
concentration at 3.5 h (human, plasma, po, 80 mg, Subject 201, 80 mg single oral dose (Example 3 tablets), 3.5 h, read-out: Plasma concentration): 6.1 ng/mL
concentration at 4 h (human, plasma, po, 80 mg, Subject 201, 80 mg single oral dose (Example 3 tablets), 4.0 h): 2.43 ng/mL
concentration at 4.5 h (human, plasma, po, 80 mg, Subject 201, 80 mg single oral dose (Example 3 tablets), 4.5 h): 1.19 ng/mL
AUC(0-inf) [12]: 103 ng·h/mL
Cmax [12]: 99.1 ng/mL
Tmax [12]: 1 h
half-life [12]: 0.366 h
concentration at 0 h [13]: 0 ng/mL
concentration at 0.5 h (human, plasma, po, 80 mg, Subject 202, 80 mg single oral dose (Example 3 tablets), 0.5 h, read-out: Plasma concentration): 4.46 ng/mL
concentration at 1 h [13]: 99.1 ng/mL
concentration at 1.5 h [13]: 66.7 ng/mL
concentration at 2 h [13]: 24.5 ng/mL
concentration at 2.5 h [13]: 12.5 ng/mL
concentration at 3 h [13]: 3.41 ng/mL
concentration at 3.5 h (human, plasma, po, 80 mg, Subject 202, 80 mg single oral dose (Example 3 tablets), 3.5 h, read-out: Plasma concentration): 1.61 ng/mL
Tmax (human, plasma, po, 80 mg, individual subjects who received an 80 mg oral dose (three values), post-dose): 1.5 h
Cmax increase versus the 60 mg dose (mean 80 mg oral dose): 3.5 fold
Time at which concentrations were below the level of quantitation (mean 80 mg oral dose): 4.0 h
Apparent oral bioavailability (oral formulation of Example 3): acceptable for therapeutic treatment
